For 28 molecules, IC50 and melting point results are on record in US7678787B2, “Pyrrolobenzodiazepine pyridine carboxamides and derivatives as follicle-stimulating hormone receptor antagonists” (Wyeth, priority 2005, dated 2010).

Each structure is given as a SMILES string. Several values for one entry are separate records, joined by “and”; a condition that tells them apart may be missing. Equal values may be shown once.

The target of series [1] is T1, hFSH-R (Homo sapiens, UniProt P23945).
T1 construct: expressed in transfected cells; host or cells: CHO-3D2 cells (CHO-K1 parental line)
T1 sequence (P23945 18-695): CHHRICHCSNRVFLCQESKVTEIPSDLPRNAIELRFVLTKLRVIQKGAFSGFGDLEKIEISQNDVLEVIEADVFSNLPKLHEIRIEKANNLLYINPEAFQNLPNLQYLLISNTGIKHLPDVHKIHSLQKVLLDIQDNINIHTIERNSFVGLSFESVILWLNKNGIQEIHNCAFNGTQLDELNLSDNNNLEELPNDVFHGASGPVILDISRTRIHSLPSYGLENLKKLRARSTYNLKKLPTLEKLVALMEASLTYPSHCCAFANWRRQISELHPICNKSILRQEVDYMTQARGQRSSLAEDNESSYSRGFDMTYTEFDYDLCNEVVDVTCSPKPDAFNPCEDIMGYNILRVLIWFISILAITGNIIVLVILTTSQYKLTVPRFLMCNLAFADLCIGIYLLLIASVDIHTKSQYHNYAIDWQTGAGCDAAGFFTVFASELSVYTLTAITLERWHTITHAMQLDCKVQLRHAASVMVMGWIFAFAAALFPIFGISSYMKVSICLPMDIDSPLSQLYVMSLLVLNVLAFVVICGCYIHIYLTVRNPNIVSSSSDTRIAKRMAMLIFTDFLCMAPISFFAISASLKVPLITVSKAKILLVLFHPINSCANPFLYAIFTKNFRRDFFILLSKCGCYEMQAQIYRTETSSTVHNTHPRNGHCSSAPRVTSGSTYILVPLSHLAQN
Kind of series: cAMP accumulation (RIA) in CHO-3D2 cells (hFSH-R), hFSH-induced. The class given is cell-based. The following applies: inhibition of cAMP accumulation induced by hFSH at EC20, CHO-3D2 cells. The procedure:
IN VITRO BIO-ASSAY OF AGONISTS AND ANTAGONISTS TO THE FSH RECEPTOR. SELECTIVITY AND DEPENDENCY OF AGONISTS AND ANTAGONISTS TO THE FSH RECEPTOR
Compound Vehicle: Stock compounds were solubilized in 100% DMSO (Sigma-Aldrich Chemical Co., St. Louis, Mo.) at a concentration of 30 mM. The compounds subsequently were diluted in sterile assay medium consisting of Opti-MEM® I (Invitrogen/Life Technologies, Carlsbad, Calif.) with 0.1% (w/v) BSA (Sigma-Aldrich) prior to use in the bio-assay. The final concentration of DMSO in the assay was 0.1%.
Plated cells are then incubated at 37° C. in a humidified 5% CO2/95% air atmosphere.
Assay: On the day of the assay, cells were washed three times with 100 μl/well of assay medium consisting of Opti-MEM® I (Invitrogen/Life Technologies) with 0.1% (w/v) BSA (Sigma-Aldrich). Medium was removed and 100 μl of assay medium was added to each well. Plates were incubated for an additional 30 minutes at 37° C. […] Reactions were terminated by the addition of 50 μl of 0.2N hydrochloric acid to each well and cAMP-accumulation was measured by radioimmunoassay (RIA) using a commercially available kit (Amersham Biosciences, Piscataway, N.J.).
All test compounds were evaluated in a dose-response paradigm ranging from 0.01 to 30 μM. Controls and test compounds were evaluated in quadruplicate in a 96-well format.
Along with the test compounds, FSH was run also as a postive control in the agonist mode using concentrations ranging from 0.1-1000 ng/ml.
Data were analyzed by one-way analysis of variance and significant differences between treatments and control determined by Least Significant Difference test.
Test compounds were compared to the effect of purified human FSH.

The target of series [2] is T2, human FSH receptor (Homo sapiens, UniProt P23945).
T2 construct: host or cells: CHO-K1 (CHO FSH-R 6CRE-Luc, 1D7 cells)
T2 sequence (P23945 18-695): T1 sequence (P23945 18-695)
Nature of the series: FSH receptor-dependent CRE-luciferase reporter gene assay (CHO FSH-R 6CRE-Luc cells). The class given is cell-based. The following applies: dose-response format in presence of EC50 of purified human FSH; * n=3, ** n=2 averages. In a few lines:
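CHO-K1 cells stably expressing the recombinant human FSH receptor and a luciferase reporter controlled by 6 cAMP response elements were seeded at 50,000 cells/100 μl/well in 96-well white opaque plates. Antagonists were tested in dose-response against the EC50 of purified human FSH for 4 hours at 37° C, and luciferase chemiluminescence was read with a LucScreen kit.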

On to `CC(O)c1ccccc1-c1ccc(C(=O)N2Cc3ccc(C(=O)NCc4cccnc4)n3Cc3ccccc32)cc1` (racemic) [Example 52], for which the melting point was 122 to 126 °C and 118 °C and 122 °C. Moreover, in series [1], the midpoint of inhibition, the IC50, lay at 100 nM. Further, in series [2], the IC50 came out at 116 nM.

For the molecule `COc1cc(C(=O)N2Cc3ccc(C(=O)NCc4cccnc4)n3Cc3ccccc32)ccc1-c1ccccc1C` [Example 1], the melting point lay in the range of 165 to 167 °C. Also, the IC50 in series [1] was found to be 200 nM. Further, in series [2], the IC50 turned out to be 1000 nM.

The molecule `Cc1ccccc1-c1ccc(C(=O)N2Cc3ccc(C(=O)NCc4cccnc4)n3Cc3ccccc32)cc1C` [Example 3] displayed a melting point of 148 to 150 °C. In series [1], this molecule yielded an IC50 of 80 nM. In addition, the IC50 in series [2] is 920 nM.

As for `Cc1ccccc1-c1ccc(C(=O)N2Cc3ccc(C(=O)NCc4ccc[n+]([O-])c4)n3Cc3ccccc32)cc1C` [Example 4], the melting point lay within 170 to 173 °C. Half-maximal inhibition in series [1] (IC50) required 800 nM. The IC50 in series [2] was 950 nM.

Regarding `COc1ccccc1-c1ccc(C(=O)N2Cc3ccc(C(=O)NCc4cncc(Br)c4)n3Cc3ccccc32)cc1` [Example 6, N-[(5-BROMOPYRIDIN-3-YL)METHYLL]-10-[(2′-METHOXY-1,1′-BIPHENYL-4-YL)CARBONYL]-10,11-DIHYDRO-5H-PYRROLO[2,1-C][1,4]BENZODIAZEPINE-3-CARBOXAMIDE], the melting point was 180 to 184 °C. Besides, 5400 nM corresponded to half-maximal inhibition in series [1] (IC50). Also, the IC50 in series [2] worked out at 8900 nM.

`COc1ccccc1-c1ccc(C(=O)N2Cc3ccc(C(=O)NCc4cccnc4)n3Cc3ccccc32)cc1` [Example 8] came in with a melting point of 123 to 127 °C. In series [1], this molecule showed an IC50 of 500 nM. Further, the IC50 in series [2] came to 540 nM.

In turn, `CS(=O)(=O)c1ccccc1-c1ccc(C(=O)N2Cc3ccc(C(=O)NCc4cccnc4)n3Cc3ccccc32)cc1` [Example 15] returned a melting point of 153 to 156 °C. Further, inhibition in series [1] was half-maximal at 370 nM (IC50). For the same molecule, the IC50 in series [2] was 1100 nM.

Regarding `N#CCc1ccccc1-c1ccc(C(=O)N2Cc3ccc(C(=O)NCc4cccnc4)n3Cc3ccccc32)cc1` [Example 17], the melting point lay in the range of 105 to 108 °C. Further, in series [1], the IC50 is 130 nM. The IC50 in series [2] came to 290 nM.

In turn, `NC(Cc1ccccc1-c1ccc(C(=O)N2Cc3ccc(C(=O)NCc4cccnc4)n3Cc3ccccc32)cc1)=NO` [Example 18] came in with a melting point of 131 to 134 °C. In addition, inhibition in series [1] was half-maximal at 70 nM (IC50). Also, the IC50 in series [2] is 41 nM.

`Cc1ccccc1-c1ccc(C(=O)N2Cc3ccc(C(=O)NCc4cccnc4)n3Cc3ccccc32)cc1` [Example 28] yielded a melting point of 176 to 177 °C. The IC50 in series [1] worked out at 800 nM. Further, in series [2], the IC50 worked out at 2000 nM.

`CC(=O)c1ccccc1-c1ccc(C(=O)N2Cc3ccc(C(=O)NCc4cccnc4)n3Cc3ccccc32)cc1C` [Example 29] showed a melting point of 171 to 172 °C. For the same molecule, in series [1], the IC50 is 400 nM. For the same molecule, the IC50 in series [2] stood at 900 nM.

Regarding `CNCc1ccccc1-c1ccc(C(=O)N2Cc3ccc(C(=O)NCc4cccnc4)n3Cc3ccccc32)cc1` [Example 42], the melting point fell in the range of 149 to 150 °C. Also, the midpoint of inhibition in series [1], the IC50, lay at 2000 nM. Further, the IC50 in series [2] stood at 7090 nM.

Molecule `O=C(NCc1cccnc1)c1ccc2n1Cc1ccccc1N(C(=O)c1ccc(-c3ccccc3CN3CCOCC3)cc1)C2` [Example 43] displayed a melting point of 191 to 194 °C. Inhibition in series [1] was half-maximal at 140 nM (IC50). In series [2], the IC50 was 257 nM.

Turning to `O=C(NCc1cccnc1)c1ccc2n1Cc1ccccc1N(C(=O)c1ccc(-c3ccccc3CN3CCCCC3)cc1)C2` [Example 44], the melting point fell in the range of 199 to 202 °C. Besides, the IC50 in series [1] was 1710 nM. Besides, in series [2], the IC50 is 2940 nM.

`CN(C)Cc1ccccc1-c1ccc(C(=O)N2Cc3ccc(C(=O)NCc4cccnc4)n3Cc3ccccc32)cc1` [Example 45] gave a melting point of 95 to 104 °C. Besides, the midpoint of inhibition in series [1], the IC50, lay at 780 nM. Besides, the IC50 in series [2] is 3580 nM.

Regarding `NCc1ccccc1-c1ccc(C(=O)N2Cc3ccc(C(=O)NCc4cccnc4)n3Cc3ccccc32)cc1` [Example 46], the melting point fell in the range of 115 to 120 °C. Besides, in series [1], the IC50 was found to be 370 nM. Further, the IC50 in series [2] stood at 2190 nM.

As for `COc1ccccc1-c1ccc(C(=O)N2Cc3ccc(C(=O)NCc4cccnc4)n3Cc3ccccc32)cc1C` [Example 47], the melting point was 119 to 124 °C. Further, the IC50 in series [1] was 200 nM. Further, the IC50 in series [2] was determined as 650 nM.

The molecule `CCOc1ccccc1-c1ccc(C(=O)N2Cc3ccc(C(=O)NCc4cccnc4)n3Cc3ccccc32)cc1C` [Example 48] came in with a melting point of 139 to 143 °C. The molecule also registered an IC50 in series [1] of 300 nM. In series [2], the IC50 worked out at 1600 nM.

The molecule `COCc1ccccc1-c1ccc(C(=O)N2Cc3ccc(C(=O)NCc4cccnc4)n3Cc3ccccc32)cc1C` [Example 49] yielded a melting point of 163 to 164 °C. Also, in series [1], inhibition was half-maximal at 100 nM (IC50). Besides, the IC50 in series [2] turned out to be 600 nM.

In turn, `CC(=O)c1ccccc1-c1ccc(C(=O)N2Cc3ccc(C(=O)NCc4cccnc4)n3Cc3ccccc32)cc1` [Example 51] came in with a melting point of 149 to 150 °C. Moreover, the IC50 in series [1] worked out at 100 nM. In series [2], the IC50 is 290 nM.

On to `CC(O)c1ccccc1-c1ccc(C(=O)N2Cc3ccc(C(=O)NCc4ccc[n+]([O-])c4)n3Cc3ccccc32)cc1` (centres unmarked) [Example 55, 10-{[2′-(1-HYDROXYETHYL)-1,1′-BIPHENYL-4-YL]CARBONYL}-N-[(1-OXIDOPYRIDIN-3-YL)METHYL]-10,11-DIHYDRO-5H-PYRROLO[2,1-C][1,4]BENZODIAZEPINE-3-CARBOXAMIDE], for which the melting point lay within 213 to 215 °C. Further, the IC50 in series [1] worked out at 620 nM. Moreover, the IC50 in series [2] came to 1050 nM.

`O=Cc1ccccc1-c1ccc(C(=O)N2Cc3ccc(C(=O)NCc4cccnc4)n3Cc3ccccc32)cc1` [Example 56] came in with a melting point of 162 to 163 °C. For the same molecule, half-maximal inhibition in series [1] (IC50) was put at 900 nM. Further, in series [2], the IC50 stood at 1040 nM.

Take `Cc1cc(C(=O)N2Cc3ccc(C(=O)NCc4cccnc4)n3Cc3ccccc32)ccc1-c1ccccc1` [Example 57]: the melting point lay in the range of 108 to 112 °C. In series [1], this molecule returned a half-inhibitory concentration (IC50) of 700 nM. Besides, in series [2], the IC50 is 2120 nM.

Molecule `CCC(O)c1ccccc1-c1ccc(C(=O)N2Cc3ccc(C(=O)NCc4cccnc4)n3Cc3ccccc32)cc1` (centres unmarked) [Example 58] registered a melting point of 111 to 115 °C. Moreover, the IC50 in series [1] was found to be 200 nM. Further, in series [2], the IC50 stood at 400 nM.

`O=C(NCc1cccnc1)c1ccc2n1Cc1ccccc1N(C(=O)c1ccc(-c3ccccc3CO)cc1)C2` [Example 59] registered a melting point of 119 to 121 °C. The molecule also showed an IC50 in series [1] of 60 nM. Besides, the IC50 in series [2] turned out to be 100 nM.

`COCc1ccccc1-c1ccc(C(=O)N2Cc3ccc(C(=O)NCc4cccnc4)n3Cc3ccccc32)cc1` [Example 61]: the melting point lay within 156 to 157 °C. In series [1], this molecule displayed an IC50 of 50 nM. In series [2], the IC50 worked out at 100 nM.

Regarding `O=C(NCc1cccnc1)c1ccc2n1Cc1ccccc1N(C(=O)c1ccc(-c3ccccc3/C=N/O)cc1)C2` [Example 62], the melting point lay in the range of 165 to 167 °C. The molecule further registered an IC50 in series [1] of 550 nM. Moreover, in series [2], the IC50 stood at 1060 nM.

On to `COc1ccc(CNc2ccc(C(=O)N3Cc4ccc(C(=O)NCc5cccnc5)n4Cc4ccccc43)cn2)cc1` [Example 122], for which the IC50 in series [1] is more than 30000 nM; in series [2] it was 36500 nM.
